Measurements published in patent EP1561465A2, “Methods of use of fluoroquinolone compounds against bacteria” (LG Life Sciences, Ltd., priority 1999, dated 2001).
Converted amounts (≈) assume the structure as drawn. Read-outs that look alike come from different tables or passages of the source.

What was measured:
Assay type in all cases: cell-based
Enterococcus faecalis = assay: MIC by agar macrodilution (NCCLS), 373 Gram positive isolates, Athens 1998
Staphylococcus aureus = assay: as above
Streptococcus pneumoniae = assay: MIC by E-test (broth microdilution for gemifloxacin), 107 pneumococcal carrier isolates, Athens 1998; details: for MIC Range: in µg/mL (unit assumed)
Description: Susceptibility testing was performed by agar dilution or epsilometer method (E-test), as recommended by the NCCLS. […] The susceptibility profiles of the strains were assessed using the Epsilometer method (E-test). The isolates were subdivided into two groups according to their penicillin susceptibility patterns (penicillin-susceptible and penicillin-intermediate.

[1] = continuation of the preceding table (title not shown), 14 isolates

CN[C@H](CC(C)C)C(=O)N[C@H]1C(=O)N[C@@H](CC(N)=O)C(=O)N[C@H]2C(=O)N[C@H]3C(=O)N[C@H](C(=O)N[C@H](C(=O)O)c4cc(O)cc(O)c4-c4cc3ccc4O)[C@H](O)c3ccc(c(Cl)c3)Oc3cc2cc(c3O[C@@H]2O[C@H](CO)[C@@H](O)[C@H](O)[C@H]2O[C@H]2C[C@](C)(N)[C@H](O)[C@H](C)O2)Oc2ccc(cc2Cl)[C@H]1O [Vancomycin]
MIC distribution (µg/ml) 0.03 (Enterococcus faecalis): 0 | MIC distribution (µg/ml) 0.06 (Enterococcus faecalis): 0 | MIC distribution (µg/ml) 0.125 (Enterococcus faecalis): 0 | MIC distribution (µg/ml) 0.25 (Enterococcus faecalis): 0 | MIC distribution (µg/ml) 0.5 (Enterococcus faecalis): 0 | MIC distribution (µg/ml) 1 (Enterococcus faecalis): 4 | MIC distribution (µg/ml) 4 (Enterococcus faecalis): 6 | MIC distribution (µg/ml) 8 (Enterococcus faecalis): 0 | MIC distribution (µg/ml) 16 (Enterococcus faecalis): 0 | MIC distribution (µg/ml) ≤0.015 (Enterococcus faecalis): 0 | MIC50 (Enterococcus faecalis; Enterococcus faecalis): 2 µg/mL (≈ 1.38 µM) | MIC90 (Enterococcus faecalis; Enterococcus faecalis): 4 µg/mL (≈ 2.76 µM) | MIC50 (Enterococcus faecalis; [1]): 2 µg/mL (≈ 1.38 µM) | MIC90 (Enterococcus faecalis; [1]): 4 µg/mL (≈ 2.76 µM) | MIC Range (Enterococcus faecalis; [1]): 1 to 4 µg/mL | MIC distribution (µg/ml) 1 (Enterococcus faecalis; number of isolates at MIC 1 µg/ml, n = 81): 10 | MIC distribution (µg/ml) 4 (Enterococcus faecalis; number of isolates at MIC 4 µg/ml, n = 81): 40 | MIC Range (Staphylococcus aureus; Methicillin-susceptible Staphylococcus aureus (n = 85)): 0.5 to 2 µg/mL | MIC50 (Staphylococcus aureus; Staphylococcus aureus): 1 µg/mL (≈ 0.69 µM) | MIC90 (Staphylococcus aureus; Staphylococcus aureus): 2 µg/mL (≈ 1.38 µM) | MIC Range (Streptococcus pneumoniae; Penicillin-intermediate S. pneumoniae (n = 24), E-test): 0.19-1.5 | MIC90 (Streptococcus pneumoniae; Penicillin-intermediate S. pneumoniae (n = 24), E-test, unit assumed): 1 µg/mL (≈ 0.69 µM) | MIC Range (Streptococcus pneumoniae; Penicillin-susceptible S. pneumoniae (n = 107), E-test): 0.064-2 | MIC90 (Streptococcus pneumoniae; Streptococcus pneumoniae): 1 µg/mL (≈ 0.69 µM) | MIC50 (Streptococcus pneumoniae; Streptococcus pneumoniae, Penicillin-intermediate S. pneumoniae (n = 24), E-test): 0.75 µg/mL (≈ 0.518 µM) | MIC50 (Streptococcus pneumoniae; Streptococcus pneumoniae, Penicillin-susceptible S. pneumoniae (n = 107), E-test): 0.5 µg/mL (≈ 0.345 µM)
